Data reported in patent publication US9073855B2, “BCL-2 selective apoptosis-inducing agents for the treatment of cancer and immune diseases” (AbbVie Inc., priority 2008, dated 2015).
Read-outs that look alike come from different tables or passages of the source.

Experiments:
FL5.12/Bcl-2 cells = experiment: FL5.12/Bcl-2 cell viability assay under IL-3 withdrawal (CellTitre Glo); assay type: cell-based, murine; details: Mus musculus, IL-3 withdrawn 48 hrs, then 24 hrs with compound
How it was run: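 Murine IL-3-dependent FL5.12 cells stably overexpressing Bcl-2 were deprived of IL-3 (WEHI-3B conditioned medium) for 48 h, then exposed to various compound concentrations for 24 h at 37 °C. Viability read by CellTiter-Glo luminescence.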

Canine platelets = experiment: Platelet cell viability assay (platelet-rich plasma, Cell Titer Glo); assay type: cell-based; details: Canis lupus familiaris, 5 h, isolated canine platelets ex vivo, five hours at 37° C.
How it was run: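 Isolated canine platelets were incubated ex vivo with a range of compound concentrations. After 20 min equilibration at room temperature, viability was measured by Cell Titer Glo luminescence.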

circulating platelets [1] = details: following injection into C57BL/6 mice; cited from earlier work
circulating platelets [2] = details: following injection in beagle canines; cited from earlier work
GST-Bcl-XL = GST-Bcl-XL (Homo sapiens, UniProt Q07817); experiment: TR-FRET binding assay, GST-Bcl-XL with F-Bak peptide probe; details: TR-FRET Binding Affinity, GST-Bcl-XL, F-Bak peptide probe
How it was run: (§1)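 Competitive TR-FRET: GST-fusion protein, fluorescent Bak peptide probe and Tb-labelled anti-GST antibody incubated with compound dilution series (starting 50 μM as 2× stock, 10% DMSO) for 3 h at RT. Excitation 340/35 nm; Ki derived via Wang's exact competitive-binding equation.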

GST-Bcl-2 = GST-Bcl-2 (Homo sapiens, UniProt P10415); experiment: TR-FRET binding assay, GST-Bcl-2 with F-Bak peptide probe; details: TR-FRET Binding Affinity, GST-Bcl-2, F-Bak peptide probe
How it was run: as §1

Chain of GST-Bcl-XL (Q07817 whole entry, the tested form may be a part): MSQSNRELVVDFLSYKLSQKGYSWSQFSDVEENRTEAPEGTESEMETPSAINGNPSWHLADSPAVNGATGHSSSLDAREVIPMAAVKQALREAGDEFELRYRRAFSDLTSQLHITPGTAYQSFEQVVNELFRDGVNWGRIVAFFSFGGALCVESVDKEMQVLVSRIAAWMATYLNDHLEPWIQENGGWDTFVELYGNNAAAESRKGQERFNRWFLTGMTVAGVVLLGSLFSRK
Chain of GST-Bcl-2 (P10415 whole entry): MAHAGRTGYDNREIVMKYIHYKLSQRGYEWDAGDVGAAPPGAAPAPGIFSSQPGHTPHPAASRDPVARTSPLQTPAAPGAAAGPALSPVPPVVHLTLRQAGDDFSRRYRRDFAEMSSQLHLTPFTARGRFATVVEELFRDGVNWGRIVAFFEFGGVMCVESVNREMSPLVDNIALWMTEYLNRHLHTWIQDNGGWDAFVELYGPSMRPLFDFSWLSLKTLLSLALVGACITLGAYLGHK

| Compound | EC50 (FL5.12/Bcl-2 cells) | EC50 (Canine platelets) | effect on circulating platelets (circulating platelets [1]) | effect on circulating platelets (circulating platelets [2]) | Ki (GST-Bcl-XL) | Ki (GST-Bcl-2) |
| --- | --- | --- | --- | --- | --- | --- |
| CN(C)CC[C@H](CSc1ccccc1)Nc1ccc(S(=O)(=O)NC(=O)c2ccc(N3CCN(Cc4ccccc4-c4ccc(Cl)cc4)CC3)cc2)cc1[N+](=O)[O-] [ABT-737, 4-(4-((4′-chloro-1,1′-biphenyl-2-yl)methyl)piperazin-1-yl)-N-((4-(((1R)-3-(dimethylamino)-1-((phenylthio)methyl)propyl)amino)-3-nitrophenyl)sulfonyl)benzamide, reference compound] | 25 nM | 282 nM | rapid, concentration dependant decrease in circulating platelets | rapid, concentration dependant decrease in circulating platelets | – | – |
| CN1CCC(Nc2ccc(S(=O)(=O)NC(=O)c3ccc(N4CCN(CC5=C(c6ccc(Cl)cc6)CCCCC5)CC4)cc3Oc3cccc4[nH]ccc34)cc2[N+](=O)[O-])CC1 [Example 147, 4-(4-{[2-(4-chlorophenyl)cyclohept-1-en-1-yl]methyl}piperazin-1-yl)-2-(1H-indol-4-yloxy)-N-({4-[(1-methylpiperidin-4-yl)amino]-3-nitrophenyl}sulfonyl)benzamide] | 9 nM | 17600 nM | – | – | > 660 nM | 0.514 nM |
| CC1(C)CCC(CN2CCN(c3ccc(C(=O)NS(=O)(=O)c4ccc(NCCCN5CCOCC5)c([N+](=O)[O-])c4)c(Oc4cccc5[nH]ccc45)c3)CC2)=C(c2ccc(Cl)cc2)C1 [Example 55, 4-(4-{[2-(4-chlorophenyl)-4,4-dimethylcyclohex-1-en-1-yl]methyl}piperazin-1-yl)-2-(1H-indol-4-yloxy)-N-({4-[(3-morpholin-4-ylpropyl)amino]-3-nitrophenyl}sulfonyl)benzamide] | 22 nM | 36000 nM | – | – | 24.9 nM | 0.196 nM |
| CC1(C)CCC(CN2CCN(c3ccc(C(=O)NS(=O)(=O)c4ccc(NCCCN5CCOCC5)c([N+](=O)[O-])c4)c(Oc4ccccc4)c3)CC2)=C(c2ccc(Cl)cc2)C1 [Example 18, 4-(4-{[2-(4-chlorophenyl)-4,4-dimethylcyclohex-1-en-1-yl]methyl}piperazin-1-yl)-N-({4-[(3-morpholin-4-ylpropyl)amino]-3-nitrophenyl}sulfonyl)-2-phenoxybenzamide] | 123 nM | 29700 nM | – | – | 8.13 nM | 0.238 nM |
| CC1(C)CCC(CN2CCN(c3ccc(C(=O)NS(=O)(=O)c4ccc(NC5CCN(C6CCOCC6)CC5)c([N+](=O)[O-])c4)c(Oc4ccc5[nH]ccc5c4)c3)CC2)=C(c2ccc(Cl)cc2)C1 [Example 173, 4-(4-{[2-(4-chlorophenyl)-4,4-dimethylcyclohex-1-en-1-yl]methyl}piperazin-1-yl)-2-(1H-indol-5-yloxy)-N-({3-nitro-4-[(1-tetrahydro-2H-pyran-4-ylpiperidin-4-yl)amino]phenyl}sulfonyl)benzamide] | 11 nM | > 50000 nM | – | – | 22.1 nM | 0.108 nM |
| CN(C)CCOc1ccc(-c2ccc(Cl)cc2)c(CN2CCN(c3ccc(C(=O)NS(=O)(=O)c4ccc(NC5CCN(CC(F)(F)F)CC5)c([N+](=O)[O-])c4)c(Oc4ccccc4)c3)CC2)c1 [Example 137, 4-[4-({4′-chloro-4-[2-(dimethylamino)ethoxy]-1,1′-biphenyl-2-yl}methyl)piperazin-1-yl]-N-[(3-nitro-4-{[1-(2,2,2-trifluoroethyl)piperidin-4-yl]amino}phenyl)sulfonyl]-2-phenoxybenzamide] | 281 nM | > 50000 nM | – | – | 16 nM | 0.305 nM |
| CC1(C)CCC(CN2CCN(c3ccc(C(=O)NS(=O)(=O)c4ccc(NC5CCN(C6CCCC6)CC5)c([N+](=O)[O-])c4)c(Oc4ccc5[nH]ccc5c4)c3)CC2)=C(c2ccc(Cl)cc2)C1 [Example 26, 4-(4-{[2-(4-chlorophenyl)-4,4-dimethylcyclohex-1-en-1-yl]methyl}piperazin-1-yl)-N-({4-[(1-cyclopentylpiperidin-4-yl)amino]-3-nitrophenyl}sulfonyl)-2-(1H-indol-5-yloxy)benzamide] | 35 nM | > 50000 nM | – | – | > 660 nM | 0.14 nM |
| O=C(NS(=O)(=O)c1ccc(NCC2CCOCC2)c([N+](=O)[O-])c1)c1ccc(N2CCN(Cc3ccccc3-c3ccc(Cl)cc3)CC2)cc1Oc1ccc2c(c1)CCN2 [Example 140, 4-{4-[(4′-chloro-1,1′-biphenyl-2-yl)methyl]piperazin-1-yl}-2-(2,3-dihydro-1H-indol-5-yloxy)-N-({3-nitro-4-[(tetrahydro-2H-pyran-4-ylmethyl)amino]phenyl}sulfonyl)benzamide] | 2130 nM | > 50000 nM | – | – | > 660 nM | 4.73 nM |
